# Laboratory results reported in PubChem BioAssay AID212 (DTP/NCI, 2004).
# Where “and” joins values, the source holds several entries; their conditions need not be identical. Equal entries are not always repeated. Inconclusive results are not listed.
# Tested on: BDF1 mice, colon carcinoma 38 sc, T/C %
# Assay: NCI In Vivo Anticancer Drug Screen. Data for tumor model Colon Carcinoma 38 (subcutaneous) in B6D2F1 (BDF1) mice
# Conditions: endpoint: median tumor weight (est.), higher = larger tumour
# Outline: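 Ratio of survival or tumor size, compound-treated animals relative to vehicle controls, in tumor-bearing mice.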
# [1] = dose: 6.25 mg/kg/injection, schedule: Q07DX002 (ip), vehicle: saline with Tween-80
# [2] = dose: 100.0 mg/kg/injection, schedule: Q07DX002 (ip), vehicle: saline with Tween-80
# [3] = dose: 200.0 mg/kg/injection, schedule: Q07DX002 (ip), vehicle: saline with Tween-80
structure (smiles),measurement,setting,value
COC1=C(OC)C(=O)C(Sc2ccc3ccccc3c2)=CC1=O,T/C,[1],86 % of control
same,T/C,"dose: 12.5 mg/kg/injection, schedule: Q07DX002 (ip), vehicle: saline with Tween-80",63 % of control
same,T/C,"dose: 50.0 mg/kg/injection, schedule: Q07DX002 (ip), vehicle: saline with Tween-80",90 % of control and 98 % of control
same,T/C,[2],87 % of control and 88 % of control
same,T/C,[3],74 % of control
Cc1ccc[c]([Hg][Cl])c1N=Nc1ccccc1,T/C,[1],69 % of control
c1ccc([C@H]2CN3CCSC3=N2)cc1,T/C,"dose: 10.0 mg/kg/injection, schedule: Q07DX003 (ip), vehicle: saline",77 % of control
same,T/C,"dose: 40.0 mg/kg/injection, schedule: Q07DX003 (ip), vehicle: saline",45 % of control
CC(=O)Oc1ccccc1C(=O)O,T/C,"dose: 32.0 mg/kg/injection, schedule: Q07DX002 (ip), vehicle: saline with Tween-80",102 % of control
same,T/C,"dose: 64.0 mg/kg/injection, schedule: Q07DX002 (ip), vehicle: saline with Tween-80",53 % of control
same,T/C,"dose: 72.0 mg/kg/injection, schedule: Q07DX002 (ip), vehicle: saline with Tween-80",122 % of control
same,T/C,"dose: 128.0 mg/kg/injection, schedule: Q07DX002 (ip), vehicle: saline with Tween-80",76 % of control
same,T/C,"dose: 144.0 mg/kg/injection, schedule: Q07DX002 (ip), vehicle: saline with Tween-80",118 % of control
same,T/C,"dose: 256.0 mg/kg/injection, schedule: Q07DX002 (ip), vehicle: saline with Tween-80",97 % of control
same,T/C,"dose: 518.0 mg/kg/injection, schedule: Q07DX002 (ip), vehicle: saline with Tween-80",90 % of control
same,T/C,"dose: 1152.0 mg/kg/injection, schedule: Q07DX002 (ip), vehicle: saline with Tween-80",118 % of control
Cc1c2cc[n+](CCN3CCCCC3)cc2c(C)c2c1[nH]c1ccc(O)cc12,T/C,"dose: 3.12 mg/kg/injection, schedule: Q07DX002 (ip), vehicle: saline",36 % of control
same,T/C,"dose: 3.12 mg/kg/injection, schedule: Q07DX002 (ip), vehicle: suspension in saline",100 % of control
same,T/C,"dose: 6.25 mg/kg/injection, schedule: Q07DX002 (ip), vehicle: saline",53 % of control and 61 % of control
same,T/C,"dose: 6.25 mg/kg/injection, schedule: Q07DX002 (ip), vehicle: suspension in saline",104 % of control
same,T/C,"dose: 12.5 mg/kg/injection, schedule: Q07DX002 (ip), vehicle: suspension in saline",86 % of control
same,T/C,"dose: 25.0 mg/kg/injection, schedule: Q07DX002 (ip), vehicle: saline",39 % of control and 64 % of control
same,T/C,"dose: 25.0 mg/kg/injection, schedule: Q07DX002 (ip), vehicle: suspension in saline",69 % of control
same,T/C,"dose: 50.0 mg/kg/injection, schedule: Q07DX002 (ip), vehicle: suspension in saline",39 % of control
same,T/C,"dose: 100.0 mg/kg/injection, schedule: Q07DX002 (ip), vehicle: saline",36 % of control and 47 % of control
NC1=NC(O)C=C1 (stereo not given),T/C,"dose: 7.5 mg/kg/injection, schedule: Q07DX002 (ip), vehicle: saline",90 % of control
same,T/C,"dose: 15.0 mg/kg/injection, schedule: Q07DX002 (ip), vehicle: saline",103 % of control
same,T/C,"dose: 30.0 mg/kg/injection, schedule: Q07DX002 (ip), vehicle: saline",100 % of control
same,T/C,"dose: 60.0 mg/kg/injection, schedule: Q07DX002 (ip), vehicle: saline",87 % of control
O=C(N[C@H](CO)[C@H](O)c1ccc([N+](=O)[O-])cc1)C(Cl)Cl,T/C,[2],60 % of control
same,T/C,"dose: 112.0 mg/kg/injection, schedule: Q07DX002 (ip), vehicle: saline with Tween-80",72 % of control
same,T/C,[3],91 % of control
same,T/C,"dose: 225.0 mg/kg/injection, schedule: Q07DX002 (ip), vehicle: saline + Tween-80 + alcohol",44 % of control
same,T/C,"dose: 225.0 mg/kg/injection, schedule: Q07DX002 (ip), vehicle: saline with Tween-80",95 % of control
same,T/C,"dose: 400.0 mg/kg/injection, schedule: Q07DX002 (ip), vehicle: saline with Tween-80",112 % of control
same,T/C,"dose: 450.0 mg/kg/injection, schedule: Q07DX002 (ip), vehicle: saline + Tween-80 + alcohol",85 % of control
same,T/C,"dose: 450.0 mg/kg/injection, schedule: Q07DX002 (ip), vehicle: saline with Tween-80",87 % of control and 94 % of control
same,T/C,"dose: 800.0 mg/kg/injection, schedule: Q07DX002 (ip), vehicle: saline with Tween-80",68 % of control
same,T/C,"dose: 900.0 mg/kg/injection, schedule: Q07DX002 (ip), vehicle: saline + Tween-80 + alcohol",41 % of control
same,T/C,"dose: 900.0 mg/kg/injection, schedule: Q07DX002 (ip), vehicle: saline with Tween-80",118 % of control
